Test: Sessile contact angle of water on lipid pellet surface
Type: physicochemical
Conditions: pellets fabricated from each lipid
Procedure: Particle characterization. Particle morphology and size were studied at low voltage (5 kV) using scanning electron microscopy imaging (LEICA 440) after coating with palladium. Surface charge measurements on samples suspended in 1:10 diluted PBS were carried out using a Malvern Zetasizer-Nano ZS (Malvern, UK). A PRECO Hydraulic press (Los Angles, Calif.) was used to make lipid pellets with approximate surface area of 25 mm^2. For contact angle measurements, a ramé-hart contact angle goniometer (100-FO) was used to measure the sessile contact angle of water on a lipid pellet surface. Unless otherwise stated, measurements were taken in triplicate.

- Hydrophobicity by contact angle of water on lipid surfaces: least hydrophobic
Compound: CCCCCCCC(=O)OCC(=O)COC(=O)CCCCCCC [C8]

Reference: patent US20100104625A1, “BIODEGRADABLE COMPOSITIONS AND MATERIALS” (CORNELL UNIVERSITY, priority 2007, published 2010)
